Test results as given in US7585998B2 (Bayer CropScience AG, priority 2003, dated 2009).

Test: log P determination by HPLC on a reverse phase column (C 18), EEC Directive 79/831 Annex V.A8
Format: physicochemical
Details: pH 2.3, 0.1% aqueous phosphoric acid and acetonitrile as eluents, linear gradient 10% to 90% acetonitrile, 43° C.
Experimental: The determination of the log P values reported in the above tables and preparation examples is carried out in compliance with EEC Directive 79/831 Annex V.A8 by HPLC (High Performance Liquid Chromatography) on a reverse phase column (C 18). Temperature: 43° C. The determination is carried out in the acid region at pH 2.3 with 0.1% aqueous phosphoric acid and acetonitrile as eluents; linear gradient of 10% acetonitrile to 90% acetonitrile. Calibration is carried out with unbranched alkan-2-ones (with 3 to 16 carbon atoms) the log P values of which are known (determination of the log P values on the basis of retention times by linear interpolation between two sequential alkanones).

SMILES: CCOC(=O)c1sc(C)nc1C(F)F
- chromatographic logP: 2.18
